≈ marks a conversion by molar mass, not a printed value. Calls of active or inactive are those of the source. The rule behind the calls is not given here.
Columns and labels:
[1] = molecular target: High affinity nerve growth factor receptor (Rattus norvegicus) (UniProt P35739); experiment: Inhibition of TrkA phosphorylation in rat PC12 cells at 1 uM after 5 mins in presence of NGF by Western blot analysis; type: cell-based; settings: PC-12
[2] = molecular target: BDNF/NT-3 growth factors receptor (Mus musculus) (UniProt P15209); experiment: Inhibition of TrkB phosphorylation in mouse MG87 cells transfected with pFA2-Elk plasmid and pFR-luciferase plasmid at 1 uM after 5 mins in presence of BDNF by Western blot analysis; type: cell-based
[3] = molecular target: High affinity nerve growth factor receptor (Rattus norvegicus) (UniProt P35739); experiment: Inhibition of TrkA in rat PC-12 cells assessed as reduction in Akt phosphorylation at 0.01 to 1 uM after 5 mins in presence of NGF by Western blot analysis; type: cell-based; settings: dose 0.01-1 µM
[4] = molecular target: BDNF/NT-3 growth factors receptor (Mus musculus) (UniProt P15209); experiment: Inhibition of TrkB in mouse MG87 cells transfected with pFA2-Elk plasmid and pFR-luciferase plasmid assessed as reduction in Akt phosphorylation at 0.01 to 1 uM after 5 mins in presence of BDNF by Western blot analysis; type: cell-based; settings: dose 0.01-1 µM
[5] = molecular target: High affinity nerve growth factor receptor (Rattus norvegicus) (UniProt P35739); experiment: Inhibition of TrkA in rat PC12 cells assessed as reduction in ERK1/ERK2 phosphorylation at 0.01 to 1 uM after 5 mins in presence of NGF by Western blot analysis; type: cell-based; settings: PC-12, dose 0.01-1 µM
[6] = molecular target: BDNF/NT-3 growth factors receptor (Mus musculus) (UniProt P15209); experiment: Inhibition of TrkB in mouse MG87 cells transfected with pFA2-Elk plasmid and pFR-luciferase plasmid assessed as reduction in ERK1/ERK2 phosphorylation at 0.01 to 1 uM after 5 mins in presence of BDNF by Western blot analysis; type: cell-based; settings: dose 0.01-1 µM
[7] = tested on: MG87; experiment: Cytotoxicity against mouse MG87 cells transfected with pFA2-Elk plasmid and pFR-luciferase plasmid assessed as cellular ATP content at 0.01 to 1 uM after 24 hrs by CellTiter-Glo luminescent analysis; type: functional, cell-based; settings: dose 0.01-1 µM
[8] = molecular target: RAC-alpha serine/threonine-protein kinase (Homo sapiens) (UniProt P31749); experiment: Inhibition of human AKT1 (104 to 408 residues) assessed as residual activity at 1 uM relative to control
RAC-alpha serine/threonine-protein kinase (Homo sapiens), sequence (P31749 whole entry, the tested form may be a part): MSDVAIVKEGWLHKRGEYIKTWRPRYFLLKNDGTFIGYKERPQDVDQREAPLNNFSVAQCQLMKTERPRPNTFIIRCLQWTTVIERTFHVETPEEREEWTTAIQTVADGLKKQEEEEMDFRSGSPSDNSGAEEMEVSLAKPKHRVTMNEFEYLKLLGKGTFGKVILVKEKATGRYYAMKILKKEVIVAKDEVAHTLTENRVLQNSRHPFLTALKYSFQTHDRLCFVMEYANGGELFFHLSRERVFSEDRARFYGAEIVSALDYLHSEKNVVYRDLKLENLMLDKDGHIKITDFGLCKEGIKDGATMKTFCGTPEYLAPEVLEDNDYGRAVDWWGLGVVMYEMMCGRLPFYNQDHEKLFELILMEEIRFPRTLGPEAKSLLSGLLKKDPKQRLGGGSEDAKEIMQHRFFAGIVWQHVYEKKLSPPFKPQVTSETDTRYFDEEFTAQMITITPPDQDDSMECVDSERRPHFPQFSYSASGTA

[9] = molecular target: 5'-AMP-activated protein kinase catalytic subunit alpha-1 (Homo sapiens) (UniProt Q13131); experiment: Inhibition of human AMPKalpha1 (1 to 550 residues assessed as residual activity at 1 uM relative to control
[10] = molecular target: Aurora kinase B (Homo sapiens) (UniProt Q96GD4); experiment: Inhibition of human Aurora-B assessed as residual activity at 1 uM relative to control
[11] = molecular target: Casein kinase II subunit alpha (Homo sapiens) (UniProt P68400); experiment: Inhibition of human CK2alpha1 assessed as residual activity at 1 uM relative to control
Casein kinase II subunit alpha (Homo sapiens), sequence (P68400 whole entry, looked up): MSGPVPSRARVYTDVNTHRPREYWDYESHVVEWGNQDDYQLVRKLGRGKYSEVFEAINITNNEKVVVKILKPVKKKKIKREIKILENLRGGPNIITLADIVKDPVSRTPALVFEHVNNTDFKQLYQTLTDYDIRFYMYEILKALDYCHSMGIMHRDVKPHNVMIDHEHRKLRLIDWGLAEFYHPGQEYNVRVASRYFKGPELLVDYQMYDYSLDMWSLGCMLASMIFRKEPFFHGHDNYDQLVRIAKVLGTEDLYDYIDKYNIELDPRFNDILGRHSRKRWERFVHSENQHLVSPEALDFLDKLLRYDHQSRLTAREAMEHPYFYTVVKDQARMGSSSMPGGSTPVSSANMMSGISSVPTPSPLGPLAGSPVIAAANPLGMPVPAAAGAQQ

[12] = molecular target: Dual specificity tyrosine-phosphorylation-regulated kinase 1A (Homo sapiens) (UniProt Q13627); experiment: Inhibition of human DYRK1A assessed as residual activity at 1 uM relative to control
[13] = molecular target: Ephrin type-A receptor 2 (Homo sapiens) (UniProt P29317); experiment: Inhibition of human EPHA2 assessed as residual activity at 0.1 uM relative to control
Ephrin type-A receptor 2 (Homo sapiens), sequence (P29317 whole entry): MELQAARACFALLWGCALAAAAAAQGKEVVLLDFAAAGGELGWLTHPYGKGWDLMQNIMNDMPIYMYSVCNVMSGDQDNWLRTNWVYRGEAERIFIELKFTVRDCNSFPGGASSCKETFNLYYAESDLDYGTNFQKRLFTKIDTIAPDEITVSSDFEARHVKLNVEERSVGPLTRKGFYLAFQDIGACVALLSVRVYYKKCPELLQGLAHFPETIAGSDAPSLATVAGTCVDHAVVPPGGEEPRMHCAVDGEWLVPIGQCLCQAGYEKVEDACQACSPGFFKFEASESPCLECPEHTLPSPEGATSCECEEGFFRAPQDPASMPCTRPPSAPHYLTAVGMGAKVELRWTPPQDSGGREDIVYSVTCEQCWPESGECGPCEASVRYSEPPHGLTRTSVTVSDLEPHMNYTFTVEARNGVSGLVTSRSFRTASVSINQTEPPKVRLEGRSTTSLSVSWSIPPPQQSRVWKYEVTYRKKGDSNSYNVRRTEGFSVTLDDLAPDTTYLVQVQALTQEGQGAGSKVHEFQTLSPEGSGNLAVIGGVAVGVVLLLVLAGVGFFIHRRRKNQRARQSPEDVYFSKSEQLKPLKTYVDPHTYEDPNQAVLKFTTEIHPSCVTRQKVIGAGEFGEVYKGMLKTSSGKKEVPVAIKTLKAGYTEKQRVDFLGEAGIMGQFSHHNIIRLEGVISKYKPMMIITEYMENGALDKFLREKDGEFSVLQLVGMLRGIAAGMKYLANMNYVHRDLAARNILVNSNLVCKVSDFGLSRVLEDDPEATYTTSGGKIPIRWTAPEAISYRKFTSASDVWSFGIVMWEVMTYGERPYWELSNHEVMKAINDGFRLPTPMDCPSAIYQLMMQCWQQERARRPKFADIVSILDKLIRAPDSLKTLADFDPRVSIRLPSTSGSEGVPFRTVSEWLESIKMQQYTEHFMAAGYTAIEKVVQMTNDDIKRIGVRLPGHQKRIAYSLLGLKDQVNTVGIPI

[14] = molecular target: Insulin-like growth factor 1 receptor (Homo sapiens) (UniProt P08069); experiment: Inhibition of human IGF1R assessed as residual activity at 1 uM relative to control
[15] = molecular target: Serine/threonine-protein kinase N2 (Homo sapiens) (UniProt Q16513); experiment: Inhibition of human PRK2 assessed as residual activity at 1 uM relative to control
[16] = molecular target: Rho-associated protein kinase 2 (Homo sapiens) (UniProt O75116); experiment: Inhibition of human ROCK2 assessed as residual activity at 0.1 uM relative to control
Rho-associated protein kinase 2 (Homo sapiens), sequence (O75116 whole entry, looked up): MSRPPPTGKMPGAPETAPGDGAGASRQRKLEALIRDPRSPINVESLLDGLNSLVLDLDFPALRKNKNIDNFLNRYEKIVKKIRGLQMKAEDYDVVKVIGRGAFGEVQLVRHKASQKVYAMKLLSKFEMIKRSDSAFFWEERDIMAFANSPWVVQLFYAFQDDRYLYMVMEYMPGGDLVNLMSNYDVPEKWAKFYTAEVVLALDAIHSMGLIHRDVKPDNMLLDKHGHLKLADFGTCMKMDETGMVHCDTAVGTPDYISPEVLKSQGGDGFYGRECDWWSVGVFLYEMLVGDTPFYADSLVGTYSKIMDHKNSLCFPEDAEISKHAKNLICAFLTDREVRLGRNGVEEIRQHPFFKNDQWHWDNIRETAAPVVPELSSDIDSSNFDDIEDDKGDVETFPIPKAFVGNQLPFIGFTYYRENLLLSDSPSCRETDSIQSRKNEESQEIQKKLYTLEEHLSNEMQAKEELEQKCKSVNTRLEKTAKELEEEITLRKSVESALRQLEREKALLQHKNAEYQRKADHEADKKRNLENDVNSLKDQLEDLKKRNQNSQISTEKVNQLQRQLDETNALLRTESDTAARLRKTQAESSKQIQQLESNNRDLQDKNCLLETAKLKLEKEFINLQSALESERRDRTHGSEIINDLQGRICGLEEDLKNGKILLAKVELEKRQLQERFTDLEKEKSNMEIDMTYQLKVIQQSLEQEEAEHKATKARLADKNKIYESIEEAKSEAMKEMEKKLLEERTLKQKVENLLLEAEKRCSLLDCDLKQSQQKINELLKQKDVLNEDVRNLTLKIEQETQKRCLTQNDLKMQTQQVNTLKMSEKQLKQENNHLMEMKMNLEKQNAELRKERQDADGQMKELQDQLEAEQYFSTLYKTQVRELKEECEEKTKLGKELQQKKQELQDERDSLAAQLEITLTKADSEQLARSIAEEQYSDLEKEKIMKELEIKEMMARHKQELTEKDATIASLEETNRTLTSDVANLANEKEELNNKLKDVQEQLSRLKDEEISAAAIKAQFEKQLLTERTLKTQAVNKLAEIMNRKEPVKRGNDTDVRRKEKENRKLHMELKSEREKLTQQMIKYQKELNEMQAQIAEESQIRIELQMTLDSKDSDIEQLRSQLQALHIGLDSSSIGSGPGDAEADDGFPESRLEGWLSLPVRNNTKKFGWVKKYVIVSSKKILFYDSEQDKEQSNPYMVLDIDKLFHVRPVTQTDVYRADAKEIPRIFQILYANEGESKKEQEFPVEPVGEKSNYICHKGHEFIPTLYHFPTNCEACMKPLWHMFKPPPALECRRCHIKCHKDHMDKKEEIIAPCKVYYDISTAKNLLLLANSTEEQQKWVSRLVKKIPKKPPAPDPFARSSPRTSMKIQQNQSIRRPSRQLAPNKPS

[17] = species on record: Homo sapiens; experiment: Inhibition of human S6K assessed as residual activity at 0.1 uM relative to control
[18] = molecular target: Vascular endothelial growth factor receptor 1 (Homo sapiens) (UniProt P17948); experiment: Inhibition of human VEGFR1 assessed as residual activity at 0.1 uM relative to control
[19] = molecular target: 3-phosphoinositide-dependent protein kinase 1 (Homo sapiens) (UniProt O15530); experiment: Inhibition of human PDK1 assessed as residual activity at 0.1 uM relative to control
[20] = molecular target: T1, High affinity nerve growth factor receptor (Homo sapiens, UniProt P04629); experiment: Inhibition of GAL4 fused TrkA (unknown origin) expressed in PC12 cells transfected with pFA2-Elk plasmid and pFR-luciferase plasmid measured for 18 hrs by luciferase reporter gene assay; type: cell-based, Rattus norvegicus, PC-12
[21] = molecular target: T2, BDNF/NT-3 growth factors receptor (Homo sapiens, UniProt Q16620); experiment: Inhibition of GAL4 fused TrkB (unknown origin) expressed in MG87 cells transfected with pFA2-Elk plasmid and pFR-luciferase plasmid measured for 18 hrs by luciferase reporter gene assay; type: cell-based
T2 sequence (Q16620 whole entry, the tested form may be a part): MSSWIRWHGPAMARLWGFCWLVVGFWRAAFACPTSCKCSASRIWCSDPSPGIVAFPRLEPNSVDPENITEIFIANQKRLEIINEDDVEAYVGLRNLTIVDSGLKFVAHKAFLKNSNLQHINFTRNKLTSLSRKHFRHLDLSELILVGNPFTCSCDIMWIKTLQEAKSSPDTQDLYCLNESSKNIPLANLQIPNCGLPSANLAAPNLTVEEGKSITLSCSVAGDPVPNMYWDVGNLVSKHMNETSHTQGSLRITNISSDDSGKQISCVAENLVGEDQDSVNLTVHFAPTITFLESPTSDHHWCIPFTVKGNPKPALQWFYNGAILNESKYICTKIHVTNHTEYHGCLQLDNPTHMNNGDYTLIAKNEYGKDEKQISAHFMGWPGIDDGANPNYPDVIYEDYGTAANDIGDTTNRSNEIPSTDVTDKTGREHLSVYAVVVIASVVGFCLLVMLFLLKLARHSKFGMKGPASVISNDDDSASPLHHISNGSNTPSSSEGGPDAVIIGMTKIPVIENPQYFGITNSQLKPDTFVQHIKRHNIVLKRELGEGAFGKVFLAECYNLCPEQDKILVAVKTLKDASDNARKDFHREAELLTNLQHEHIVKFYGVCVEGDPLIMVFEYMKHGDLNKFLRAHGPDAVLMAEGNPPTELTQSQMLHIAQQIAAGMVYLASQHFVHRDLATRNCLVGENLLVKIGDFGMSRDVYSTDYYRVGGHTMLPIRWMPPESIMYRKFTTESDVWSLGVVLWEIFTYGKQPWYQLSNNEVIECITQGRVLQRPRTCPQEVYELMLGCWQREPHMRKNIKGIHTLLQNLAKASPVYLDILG

[22] = molecular target: T1, High affinity nerve growth factor receptor; experiment: Inhibition of TrkA (unknown origin)
[23] = molecular target: T2, BDNF/NT-3 growth factors receptor; experiment: Inhibition of TrkB (unknown origin)
[24] = molecular target: NT-3 growth factor receptor (Homo sapiens, UniProt Q16288); experiment: Inhibition of TrkC (unknown origin)
NT-3 growth factor receptor, sequence (Q16288 whole entry): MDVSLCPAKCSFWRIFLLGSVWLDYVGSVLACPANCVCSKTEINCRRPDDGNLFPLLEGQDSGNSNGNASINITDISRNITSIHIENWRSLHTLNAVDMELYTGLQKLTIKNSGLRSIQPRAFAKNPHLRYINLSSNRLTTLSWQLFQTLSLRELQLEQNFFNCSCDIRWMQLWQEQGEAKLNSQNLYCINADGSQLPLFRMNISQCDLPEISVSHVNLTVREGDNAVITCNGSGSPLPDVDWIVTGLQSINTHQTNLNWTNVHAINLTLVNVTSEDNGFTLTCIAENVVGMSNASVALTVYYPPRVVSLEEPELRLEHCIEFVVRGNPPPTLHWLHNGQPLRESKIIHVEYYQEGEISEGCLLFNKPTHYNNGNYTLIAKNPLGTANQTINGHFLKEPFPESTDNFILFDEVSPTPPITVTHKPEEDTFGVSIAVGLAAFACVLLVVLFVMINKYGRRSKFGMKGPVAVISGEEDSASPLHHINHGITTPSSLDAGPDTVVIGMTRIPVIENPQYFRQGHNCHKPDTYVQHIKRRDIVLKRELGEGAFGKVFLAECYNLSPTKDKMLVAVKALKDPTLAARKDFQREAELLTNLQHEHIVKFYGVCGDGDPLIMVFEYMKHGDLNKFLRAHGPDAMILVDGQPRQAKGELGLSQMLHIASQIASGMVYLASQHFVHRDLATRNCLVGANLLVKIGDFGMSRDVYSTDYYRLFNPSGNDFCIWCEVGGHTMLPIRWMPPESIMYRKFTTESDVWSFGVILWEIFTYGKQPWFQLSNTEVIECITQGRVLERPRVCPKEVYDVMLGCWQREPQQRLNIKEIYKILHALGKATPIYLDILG

[25] = Aqueous solubility of the compound […] incubated for 60 min by RP-HPLC-DAD analysis; type: physicochemical
[26] = tested on: Cortical neurone; experiment: Cytotoxicity against Wistar rat cortical neuron assessed as neuron survival at 0.01 to 1 uM incubated for 24 hrs; type: cell-based; settings: dose 0.01-1 µM
[27] = molecular target: Tyrosine-protein kinase SYK (Homo sapiens) (UniProt P43405); experiment: Inhibition of human SYK (1 to 635 residues) assessed as residual activity at 0.1 uM relative to control
[28] = molecular target: Tyrosine-protein kinase SYK (Homo sapiens) (UniProt P43405); experiment: Inhibition of human SYK (1 to 635 residues) assessed as residual activity at 1 uM relative to control

| inhibition [1] | inhibition [2] | Activity [8] [%] | Activity [9] [%] | Activity [10] [%] | Activity [11] [%] | Activity [12] [%] | Activity [13] [%] | Activity [14] [%] | Activity [15] [%] | Activity [16] [%] | Activity [17] [%] | Activity [18] [%] | Activity [19] [%] | IC50 [20] [nM] | IC50 [22] [nM] | IC50 [23] [nM] | IC50 [24] [nM] | Activity [27] [%] | Activity [28] [%] | Structure (SMILES) | further results |
| --- | --- | --- | --- | --- | --- | --- | --- | --- | --- | --- | --- | --- | --- | --- | --- | --- | --- | --- | --- | --- | --- |
| Active | Active | 96 | 89 | 50 | 94 | 99 | 98 | 100 | 89 | 99 | 92 | 94 | 93 |  |  |  |  |  |  | COc1ccc2c(c1)c(/C=C1\C(=O)Nc3ccc(S(N)(=O)=O)cc31)cn2C | inhibition [3]: Active; inhibition [4]: Active; inhibition [5]: Active; inhibition [6]: Active; Activity [7]: inactive |
| Active | Active | 93 | 91 | 71 | 90 | 94 | 106 | 79 | 94 | 92 | 87 | 96 | 99 | 46 | 10.1 | 15.2 | 11.7 | 102 | 91 | COc1ccc2c(c1)c(/C=C1\C(=O)Nc3ccc(S(=O)(=O)N(C)C)cc31)cn2C | IC50 [21]: 142 nM; inhibition [3]: Active; inhibition [4]: Active; inhibition [5]: Active; inhibition [6]: Active; solubility at 1 h [25]: 7.8 µM (≈ 3.21 µg/mL); Activity [26]: Non-Toxic; Activity [7]: inactive |
|  |  | 97 | 56 | 42 | 96 | 114 | 99 | 107 | 78 | 76 | 90 | 82 | 90 | 36.7 | 4.17 | 7.62 | 6.86 | 69 | 47 | Cn1cc(/C=C2\C(=O)Nc3ccc(S(N)(=O)=O)cc32)c2ccccc21 |  |
|  |  | 105 | 87 | 11 | 89 | 101 | 111 | 95 | 89 | 79 | 87 | 100 | 94 | 92.8 | 9.17 | 13.5 | 9.72 | 107 | 91 | CN(C)S(=O)(=O)c1ccc2c(c1)/C(=C/c1cn(C)c3ccc(O)cc13)C(=O)N2 |  |
|  |  | 101 | 72 | 48 | 84 | 96 | 110 | 97 | 81 | 101 | 88 | 96 | 98 | 103 | 8.49 | 8.53 | 8.82 | 86 | 35 | COc1ccc2[nH]cc(/C=C3\C(=O)Nc4ccc(S(N)(=O)=O)cc43)c2c1 |  |
| Active | Active | 98 | 88 | 76 | 100 | 95 | 100 | 60 | 86 | 94 | 96 | 91 | 92 |  |  |  |  |  |  | CNS(=O)(=O)c1ccc2c(c1)/C(=C/c1cn(C)c3ccc(OC)cc13)C(=O)N2 | inhibition [3]: Active; inhibition [4]: Active; inhibition [5]: Active; inhibition [6]: Active; Activity [7]: inactive |
